{"source": "ChEMBL document CHEMBL1649177", "about": "“Further identification of CTX-M-2 extended-spectrum beta-lactamase in Pseudomonas aeruginosa” (2009)", "note": "The source made the active and inactive calls. No cut-off for these calls is given here.", "data": [{"test_system": "Pseudomonas aeruginosa", "assay": "Antimicrobial activity against extended spectrum beta-lactamase CTX-M-2-producing Pseudomonas aeruginosa isolate P6208", "format": "functional, organism-based", "values": [{"compound": "NC[C@H]1O[C@H](O[C@H]2[C@H](O)[C@@H](O[C@H]3O[C@H](CO)[C@@H](O)[C@H](N)[C@H]3O)[C@H](N)C[C@@H]2N)[C@H](N)C[C@@H]1O", "Activity": "Active"}, {"compound": "COLISTIN", "Activity": "Active"}, {"compound": "NCC[C@H](O)C(=O)N[C@@H]1C[C@H](N)[C@@H](O[C@H]2O[C@H](CN)[C@@H](O)[C@H](O)[C@H]2O)[C@H](O)[C@H]1O[C@H]1O[C@H](CO)[C@@H](O)[C@H](N)[C@H]1O", "Activity": "Active"}, {"compound": "GENTAMICIN", "Activity": "Active"}]}, {"test_system": "Pseudomonas aeruginosa", "assay": "Antimicrobial activity against extended spectrum beta-lactamase CTX-M-2-producing Pseudomonas aeruginosa isolate P6208 by Etest", "format": "functional", "units": {"MIC": "mg/L"}, "values": [{"compound": "CO/N=C(\\C(=O)N[C@@H]1C(=O)N2C(C(=O)O)=C(COC(C)=O)CS[C@H]12)c1csc(N)n1", "note": "[CEFOTAXIME]", "MIC": "> 32"}, {"compound": "CC(C)(O/N=C(\\C(=O)N[C@@H]1C(=O)N2C(C(=O)[O-])=C(C[n+]3ccccc3)CS[C@H]12)c1csc(N)n1)C(=O)O", "note": "[CEFTAZIDIME]", "MIC": 2}, {"compound": "C[C@@H](O)[C@H]1C(=O)N2C(C(=O)O)=C(SCCNC=N)C[C@H]12", "note": "[IMIPENEM ANHYDROUS]", "MIC": 1}, {"compound": "CO/N=C(\\C(=O)N[C@@H]1C(=O)N2C(C(=O)[O-])=C(C[N+]3(C)CCCC3)CS[C@H]12)c1csc(N)n1", "note": "[CEFEPIME]", "MIC": "> 256"}]}]}
